Source: patent US20230265151A1, “GIP/GLP1 CO-AGONIST COMPOUNDS” (priority 2020, published 2023)
Where two headings read alike, the source gives them in different places. *1 amine or outer side, *2 acyl side, *3 side chain or, on linkers, in order; H or OH if unused. Where a SMILES comes first, the peptide text is derived from it. Side-chain parts run from the residue outwards. [ ]: non-standard residue; d: D form. The star is where a group is joined. Decanoyl(10-(4-HOOC-PhO)) = O=C(O)c1ccc(OCCCCCCCCCC(=O)*)cc1; αMePhe(2-F) = C[C@](N)(Cc1ccccc1F)C(=O)O; γGlu = O=C(O)[C@H](CCC(=O)[*:2])N[*:1]; αMeY = C[C@](N)(Cc1ccc(O)cc1)C(=O)O; αMeL = CC(C)C[C@](C)(N)C(=O)O; Orn = NCCC[C@H](N)C(=O)O; AEEA = NCCOCCOCC(=O)O; Aib = CC(C)(N)C(=O)O

What was measured:
[1] = biological target: T1, human Gcg receptor (hGcgR) (Homo sapiens, UniProt P47871); assay: [125I]-Glucagon binding, SPA with membranes of HEK293 cells expressing hGcgR
T1 construct: expressed in transfected cells; crude membranes
T1 sequence (P47871 26-477): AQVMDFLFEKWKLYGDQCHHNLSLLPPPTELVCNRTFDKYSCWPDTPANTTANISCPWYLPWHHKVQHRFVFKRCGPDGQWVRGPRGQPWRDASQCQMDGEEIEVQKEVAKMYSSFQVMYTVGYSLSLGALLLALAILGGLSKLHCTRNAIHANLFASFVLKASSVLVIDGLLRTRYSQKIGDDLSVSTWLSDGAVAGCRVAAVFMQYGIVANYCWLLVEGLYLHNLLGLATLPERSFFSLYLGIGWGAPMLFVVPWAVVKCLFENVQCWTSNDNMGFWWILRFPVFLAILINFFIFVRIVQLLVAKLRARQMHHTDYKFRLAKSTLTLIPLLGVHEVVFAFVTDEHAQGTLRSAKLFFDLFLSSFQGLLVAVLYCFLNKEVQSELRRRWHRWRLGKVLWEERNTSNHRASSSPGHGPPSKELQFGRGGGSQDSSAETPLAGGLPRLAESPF

[2] = biological target: T2, human GIP receptor (hGIPR) (Homo sapiens, UniProt P48546); assay: [125I]-GIP binding, SPA with membranes of CHO cells expressing hGIPR
T2 construct: expressed in transfected cells; crude membranes
T2 sequence (P48546 22-466): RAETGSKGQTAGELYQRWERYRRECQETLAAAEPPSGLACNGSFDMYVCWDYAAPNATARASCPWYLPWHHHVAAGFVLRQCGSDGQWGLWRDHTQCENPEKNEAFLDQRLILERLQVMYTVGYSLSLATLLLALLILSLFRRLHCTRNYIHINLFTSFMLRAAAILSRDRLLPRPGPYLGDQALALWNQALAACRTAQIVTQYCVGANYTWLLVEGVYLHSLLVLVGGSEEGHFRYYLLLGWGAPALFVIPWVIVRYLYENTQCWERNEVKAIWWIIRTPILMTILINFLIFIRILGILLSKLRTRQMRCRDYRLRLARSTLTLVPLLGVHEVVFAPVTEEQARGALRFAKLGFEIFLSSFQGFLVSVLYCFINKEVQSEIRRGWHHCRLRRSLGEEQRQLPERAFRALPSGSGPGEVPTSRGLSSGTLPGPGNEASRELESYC

hGIPR = biological target: T3, hGIPR (Homo sapiens, UniProt P48546); assay: Functional cAMP formation (HTRF) in HEK-293 clonal cells expressing hGIPR, 0.1% bovine casein, without or with 1.0% human serum albumin; type: cell-based; conditions: for EC50: hGIPR EC50, nM (SEM, n), cAMP, 0.1% bovine casein (no human serum albumin), geometric mean
T3 construct: expressed in transfected cells
T3 sequence (P48546 22-466): T2 sequence (P48546 22-466)
Method in brief: (§1)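 Cells were stimulated with peptide for 30 min at 37° C, then lysed in buffer carrying cAMP-d2 and anti-cAMP Eu3+-cryptate for a competitive HTRF read after at least 60 min at room temperature. The 665/620 nm ratio was converted to nM cAMP against a standard curve.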

hGCGR = biological target: T4, hGCGR (Homo sapiens, UniProt P47871); assay: Functional cAMP formation (HTRF) in HEK-293 clonal cells expressing hGCGR, 0.1% bovine casein, without or with 1.0% human serum albumin; type: cell-based; conditions: hGCGR EC50, nM (SEM, n), cAMP
T4 construct: expressed in transfected cells
T4 sequence (P47871 26-477): as the sequence (P47871 26-477) above
Method in brief: as §1

[3] = biological target: T5, human GLP-1 receptor (hGLP-1R) (Homo sapiens, UniProt P43220); assay: [125I]-GLP-1 binding, SPA with membranes of HEK293 cells expressing hGLP-1R
T5 construct: expressed in transfected cells; crude membranes
T5 sequence (P43220 24-463): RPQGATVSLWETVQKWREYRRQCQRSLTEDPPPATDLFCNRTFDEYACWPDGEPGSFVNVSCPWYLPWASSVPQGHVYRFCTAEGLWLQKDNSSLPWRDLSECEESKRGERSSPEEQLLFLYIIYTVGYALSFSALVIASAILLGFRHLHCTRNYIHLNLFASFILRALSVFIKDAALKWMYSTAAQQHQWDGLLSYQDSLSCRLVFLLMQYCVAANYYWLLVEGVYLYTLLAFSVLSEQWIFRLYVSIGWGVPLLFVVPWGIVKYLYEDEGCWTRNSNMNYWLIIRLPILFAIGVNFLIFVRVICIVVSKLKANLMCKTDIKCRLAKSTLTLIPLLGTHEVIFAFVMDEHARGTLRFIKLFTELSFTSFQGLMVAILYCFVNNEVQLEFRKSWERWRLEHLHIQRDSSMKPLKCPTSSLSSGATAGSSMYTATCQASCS

hGLP-1R = hGLP-1R (Homo sapiens, UniProt P43220); assay: Functional cAMP formation (HTRF) in HEK-293 clonal cells expressing hGLP-1R, 0.1% bovine casein, without or with 1.0% human serum albumin; type: cell-based; parameters: expressed in transfected cells; conditions: for EC50: hGLP-1R EC50, nM (SEM, n), cAMP, 37° C.
Sequence of hGLP-1R (P43220 24-463): as above
Method in brief: as §1

SMILES | Ki [1] [nM] | Ki [2] [nM] | Emax (hGIPR; HEK293, read-out: hGIPR Emax, % ± SEM, percent of maximal response to GIP(1-42)NH2, 37° C., 0.1% bovine casein, arithmetic mean) [%] | EC50 (hGIPR; incubated at 37° C.) [nM] | EC50 (hGCGR; incubated at 37° C., 0.1% bovine casein (no human serum albumin), geometric mean) [nM] | Ki [3] [nM] | Emax (hGIPR; HEK293, read-out: hGIPR Emax, % ± SEM, cAMP, 37° C., 0.1% bovine casein and 1.0% human serum albumin, percent of maximal response to GIP(1-42)NH2) [%] | Emax (hGIPR; HEK293, read-out: hGIPR Emax, % ± SEM, cAMP, 37° C., 0.1% bovine casein, percent of maximal response to GIP(1-42)NH2, arithmetic mean) [%] | EC50 (hGIPR; 37° C.) [nM] | EC50 (hGCGR; 37° C., 0.1% bovine casein (no human serum albumin), geometric mean) [nM] | EC50 (hGCGR; 37° C., 0.1% bovine casein and 1.0% human serum albumin, geometric mean (SEM, n)) [nM] | Emax (hGLP-1R; HEK293, read-out: hGLP-1R Emax, % ± SEM, cAMP, 37° C., 0.1% bovine casein and 1.0% human serum albumin, percent of maximal response to GLP-1(7-36)NH2) [%] | EC50 (hGLP-1R; 0.1% bovine casein (no human serum albumin), geometric mean) [nM] | EC50 (hGLP-1R; 0.1% bovine casein and 1.0% human serum albumin, geometric mean (SEM, n)) [nM]
CC[C@H](C)[C@H](NC(=O)[C@H](CC(C)C)NC(=O)[C@](C)(Cc1ccc(O)cc1)NC(=O)[C@H](CCCCNC(=O)COCCOCCNC(=O)COCCOCCNC(=O)CC[C@H](NC(=O)CCCCCCCCCOc1ccc(C(=O)O)cc1)C(=O)O)NC(=O)[C@@H](NC(=O)[C@H](Cc1ccccc1)NC(=O)[C@H](CCC(=O)O)NC(=O)C(C)(C)NC(=O)[C@H](CCC(N)=O)NC(=O)[C@H](C)NC(=O)[C@H](CCCCNC(=O)COCCOCCNC(=O)COCCOCCNC(=O)CC[C@H](NC(=O)CCCCCCCCCOc1ccc(C(=O)O)cc1)C(=O)O)NC(=O)[C@H](CCCN)NC(=O)[C@H](CC(=O)O)NC(=O)[C@H](CC(C)C)NC(=O)[C@](C)(CC(C)C)NC(=O)[C@@H](NC(=O)[C@H](CO)NC(=O)[C@H](Cc1ccncc1)NC(=O)[C@H](CC(=O)O)NC(=O)[C@H](CO)NC(=O)[C@@H](NC(=O)[C@](C)(Cc1ccccc1F)NC(=O)[C@@H](NC(=O)CNC(=O)[C@H](CCC(=O)O)NC(=O)C(C)(C)NC(=O)[C@@H](N)Cc1ccc(O)cc1)[C@@H](C)O)[C@@H](C)O)[C@@H](C)CC)[C@@H](C)CC)C(=O)N[C@@H](CCC(=O)O)C(=O)NCC(=O)NCC(=O)N1CCC[C@H]1C(=O)N[C@@H](CO)C(=O)N[C@@H](CO)C(=O)NCC(=O)N[C@@H](C)C(=O)N1CCC[C@H]1C(=O)N1CCC[C@H]1C(=O)N1CCC[C@H]1C(=O)N[C@@H](CO)C(N)=O [Example 128] | > 955 | 0.0314 | 98.5 ± 2.47 | 0.0232 | > 9950 |  |  |  |  |  |  |  |  | 
CC[C@H](C)[C@H](NC(=O)[C@H](CC(C)C)NC(=O)[C@](C)(Cc1ccc(O)cc1)NC(=O)[C@H](CCCCNC(=O)COCCOCCNC(=O)COCCOCCNC(=O)CC[C@H](NC(=O)CCCCCCCCCOc1ccc(C(=O)O)cc1)C(=O)O)NC(=O)[C@@H](NC(=O)[C@H](Cc1ccccc1)NC(=O)[C@H](CCC(=O)O)NC(=O)C(C)(C)NC(=O)[C@H](CCC(N)=O)NC(=O)[C@H](C)NC(=O)[C@H](CCC(N)=O)NC(=O)[C@H](CCCN)NC(=O)[C@H](CC(=O)O)NC(=O)[C@H](CC(C)C)NC(=O)[C@](C)(CC(C)C)NC(=O)[C@@H](NC(=O)C(C)(C)NC(=O)[C@@H](NC(=O)[C@H](CC(=O)O)NC(=O)[C@H](CO)NC(=O)[C@@H](NC(=O)[C@](C)(Cc1ccccc1F)NC(=O)[C@@H](NC(=O)CNC(=O)[C@H](CCC(=O)O)NC(=O)C(C)(C)NC(=O)[C@@H](N)Cc1ccc(O)cc1)[C@@H](C)O)[C@@H](C)O)C(C)C)[C@@H](C)CC)[C@@H](C)CC)C(=O)N[C@@H](CCCCNC(=O)COCCOCCNC(=O)COCCOCCNC(=O)CC[C@H](NC(=O)CCCCCCCCCOc1ccc(C(=O)O)cc1)C(=O)O)C(=O)NCC(=O)NCC(=O)N1CCC[C@H]1C(=O)N[C@@H](CO)C(=O)N[C@@H](CO)C(=O)NCC(=O)N[C@@H](C)C(=O)N1CCC[C@H]1C(=O)N1CCC[C@H]1C(=O)N1CCC[C@H]1C(=O)N[C@@H](CO)C(N)=O [Example 446] (H-Y[Aib]EGT[αMePhe(2-F)]TSDV[Aib]I[αMeL]LD[Orn]QAQ[Aib]EFIK([AEEA-AEEA-γGlu-Decanoyl(10-(4-HOOC-PhO))])[αMeY]LIK([AEEA-AEEA-γGlu-Decanoyl(10-(4-HOOC-PhO))])GGPSSGAPPPS-NH2) | 109 |  |  |  |  | 0.382 | 97 | 105 | 0.0164 | > 9950 | > 9950 | 105 | 0.162 | 33.5
